Series [1] has as its system Male Swiss mice. Kind of series: Determination of the DL50 (acute single dose oral toxicity). It is filed as in vivo. The following applies: oral single administration, 14 days observation. As to the method: b) Determination of the DL50 in the Products.
(EUDRA/S/87/011, Single Dose Toxicity, European Directive 75/318/EEC) (ICH S4, Toxicity Studies, single dose and repeated dose, CPMP vol III Feb. 87, Single dose toxicity)
Male Swiss mice of the same batch weighing 20-25 g are used in order to estimate the acute toxicity of the products.
Prior to administering the products, the animals were forced to fast for 12 hours with no intake of food but free access to water. Several subgroups of 10 animals were randomly selected and orally given increasing doses of the products in single administration, after which they remained under observation for a period of 14 days with free access to water and food. Finally, the number of dead animals of each subgroup was quantified and the value of the DL50 was calculated (1-2).

In series [2] the test system is Male Swiss mice. The series is described as follows: Hot plate method, analgesic activity in mice. It is filed as in vivo. The following applies: for % response time increase on hot plate: 20 μmol/kg, oral adm., n = 20-40; for change in vivo at 15 mg/kg: Mus musculus, ip, 0.5 h, hot plate test, intraperitoneal adm., n = 20, read-out: % response time increase. How it is done:
The pharmacological activity of the products of the present invention was tested in vivo in several experimental models, which are known to evaluate the pain in animals.
The method that was used is described by Eddy N. B. and Leimbach D. (J. Pharm. Exp. Ther. 107: 385-393, 1953). The analgesic effect of the products was evaluated analysing the behaviour of the animals on a hot surface at 55° C.±1° C.
Male Swiss mice weighing 20-25 g were used. The compounds being tested were administered orally or intraperitoneally 1 hour o 30 minutes before starting the test, respectively.
The process consisted of placing the animals on the plate and keeping them in a Plexiglas cylinder 25 cm high and 21 cm […]. The time the animals took to jump off the hot surface was determined. The animals were selected before starting the test so that those that took longer than 10 seconds to jump off were not included in the group that would receive treatment.
30 minutes after administering the product being tested, the test was repeated and the maximum time it took the animals to jump off was again recorded.
The results are expressed as the […] of jump time increase calculated as follows: [formula]
In order to determine the duration of the analgesic effect of the orally administered products, the analgesic activity was evaluated on the hot plate 1, 3, 6, 8, and 24 hours after the administration of the product, as well as the control group which received treatment only with the vehicle. The base responses were evaluated at 30 and 5 minutes prior to administering the products.

`COc1cccc(C2(O)CCCCC2CN(C)C)c1` (single isomer, unassigned) [Tramadol, (1R, 2R or 1S, 2S)-2-[(dimethylamino)methyl]-1-(3-methoxyphenyl) cyclohexanol, reference compound]: the “DL50 approx. Oral adm.” value in the series on Male Swiss mice [1] is recorded as roughly 350 mg/kg. In the series on Male Swiss mice [2], the “% response time increase on hot plate” value stood at 87 ± 23% and the change in vivo at 15 mg/kg amounted to 218 ± 98%.

In the case of `CC(C)Cc1ccc(C(C)C(=O)Oc2cccc(C3(O)CCCCC3CN(C)C)c2)cc1` (stereo not drawn) [EXAMPLE 1, 3-(2-Dimethylaminomethyl-1-hydroxycyclohexyl)-phenyl 2-(4-Isobutyl-phenyl)-propionate], the “DL50 approx. Oral adm.” value in the series on Male Swiss mice [1] is listed as roughly 900 mg/kg. Further, in the series with Male Swiss mice [2], the “% response time increase on hot plate” value is given as 210 ± 88% and the change in vivo at 15 mg/kg was 568 ± 100%.

Consider `COc1ccc2cc(C(C)C(=O)Oc3cccc(C4(O)CCCCC4CN(C)C)c3)ccc2c1` (stereo not drawn) [EXAMPLE 2, 3-(2-Dimethylaminomethyl-1-hydroxyyclohexyl)-phenyl 2-(6-Methoxy-naphthalen-2-yl)-propionate], for which the change in vivo at 15 mg/kg with Male Swiss mice [2] was found to be 539 ± 50%.

For `CN(C)CC1CCCCC1(O)c1cccc(OC(=O)C2CCn3c(C(=O)c4ccccc4)ccc32)c1` (stereo not drawn) [EXAMPLE 3, 3-(2-Dimethylaminomethyl-1-hydroxycyclohexyl)-phenyl 5-Benzoyl-2,3-dihydro-1H-pyrrolizine-1-carboxylate], the change in vivo at 15 mg/kg in the series on Male Swiss mice [2] is 416 ± 146%.

Regarding `CC(C)Cc1ccc(C(C)C(=O)Oc2cccc(C3=C(CN(C)C)CCCC3)c2)cc1` (stereo not drawn) [EXAMPLE 4, 3-(2-Dimethylaminomethyl-cyclohex-1-enyl)-phenyl 2-(4-Isobutyl-phenyl)-propionate], the change in vivo at 15 mg/kg in the series on Male Swiss mice [2] stood at 333 ± 134%.

For the compound `COc1ccc2cc(C(C)C(=O)Oc3cccc(C4=C(CN(C)C)CCCC4)c3)ccc2c1` (stereo not drawn) [EXAMPLE 5, 3-(2-Dimethylaminomethyl-cyclohex-1-enyl)-phenyl 2-(6-Methoxy-naphthalen-2-yl)-propionate], in the series on Male Swiss mice [2], the change in vivo at 15 mg/kg amounted to 356 ± 151%.

With `CN(C)CC1CCCCC1(O)c1cccc(OC(=O)c2ccccc2O)c1` (stereo not drawn) [EXAMPLE 6, 3-(2-Dimethylaminomethyl-1-hydroxy-cyclohexyl)-phenyl (RR-SS)-2-hydroxybenzoate], in the series on Male Swiss mice [1], the “DL50 approx. Oral adm.” value was roughly 550 mg/kg. For the same compound, in the series on Male Swiss mice [2], the “% response time increase on hot plate” value came out at 248 ± 72% and the change in vivo at 15 mg/kg was determined as 546 ± 63%.

For the compound `CN(C)CC1=C(c2cccc(OC(=O)c3ccccc3O)c2)CCCC1` [EXAMPLE 7, 3-(2-Dimethylaminomethyl-cyclohex-1-enyl)-phenyl 2-Hydroxybenzoate], the change in vivo at 15 mg/kg in the series on Male Swiss mice [2] stood at 634 ± 42%.

Regarding `CN(C)CC1CCCCC1(O)c1cccc(OC(=O)c2ccccc2OC(=O)N(C)C)c1` (stereo not drawn) [EXAMPLE 8, 3-(2-Dimethylaminomethyl-1-hydroxy-cyclohexyl)-phenyl (RR-SS)-2-dimethylcarbamoyloxy-benzoate], the change in vivo at 15 mg/kg in the series with Male Swiss mice [2] is 327 ± 65%.

Values taken from US6455585B1, “Esters derived from substituted phennyl-cyclohexyl compounds” (Vita Invest, S.A., priority 1998, dated 2002).
